Laboratory results published in patent US5340821A, “Composition and method for treating Sjoegren syndrome disease” (Snow Brand Milk Products Co., Ltd., priority 1992, dated 1994).
Where a name gives a salt, the structure may show the parent alone.

Experiments:
saliva secretion [1] = assay: Saliva secretion effects in patients suffering from a Sjoegren syndrome disease (Saxon test); format: in vivo, human
From the text: (§1) Five subjects diagnosed to be suffering from a Sjoegren syndrome disease according to the diagnosis criteria made by the study team at the Ministry of Health and Welfare (M. Ofuji, Study Report Summary for 1977, the results for the year 1977 of Diagnostic criteria of Sjoegren's syndrome (Ministry of Health and Welfare's Sjoegren Investigational Research Group), M. Ofugi, Research Report of Ministry of Health and Welfare's specific disease Sjoegren Investigational Research Group in 1977, 3-6, 1978). To each subject was administered said hydrochloric acid addition salt of quinuclidine of formula (II) at a dose of 10 mg, three times a day, each time one hour before meal, for 4 weeks (the first course); 20 mg, three times a day, each time one hour before meal, for 4 weeks (the second course); and 30 mg, three times a day, each time one hour before meal, for 4 weeks (the third course). The Saxon test (Kohler P. F., Winter M. E., Arthritis Rheum, 28, 1128-1132 (1985)) for measuring the saliva secretion was performed before the start of the first course, and after the completion of the first, second, and third courses.

tear secretion = assay: Tear secretion effects in dogs; format: in vivo; details: four weeks, 4 female beagle dogs
Method: (§2) 2-Methylspiro(1,3-oxathiolane-5,3')quinuclidine hydrochloride of formula (II), in amounts of 0, 0.5, 3, and 18 mg/kg, was orally administered to female beagle dogs (weight: 7.1-9.6 kg) of four groups, each consisting of four dogs, one time a day and for four weeks.

saliva secretion [2] = assay: Saliva secretion effects in dogs; format: in vivo; details: four weeks, 4 female beagle dogs
Method: as §2

[3] = Toxicity Test (LD50, observation of mice for two weeks); parameters: species or system ICR (CD-1) mice; details: mouse, in vivo
Method: Groups of ICR (CD-1) male and female mice (age: 5 weeks, weight of male mice: 22.0-33.8 g, weight of female mice: 18.8-27.3 g), each consisting of eight mice, were used for the test. 2-methylspiro(1,3-oxathiolane-5,3')quinuclidine hydrochloride of formula (II) was orally, intravenously, or subcutaneously administered at different (high and low) doses. LD50 (50% lethal dose) was determined by the observation of mice for two weeks thereafter.

saliva secretion [4] = assay: Saliva secretion effects in human; format: in vivo; details: 10 tested subjects
Method: 2-Methylspiro(1,3-oxathiolane-5,3')quinuclidine hydrochloride of formula (II), in amounts of 5, 10, 20, 30, 40, 50, 60, and 70 mg, was orally administered to five men and five women, aged 20-50 years.

[5] = tested on: Sjoegren syndrome disease; assay: Observation of the patient (Sjoegren syndrome disease); format: in vivo, human
From the text: as §1

[6] = background statement; cited from earlier work

## CC1OC2(CS1)CN1CCC2CC1 (stereo not shown) [2-methylspiro(1,3-oxathiolane-5,3')quinuclidine hydrochloride]
Saliva secretion [1]; subject 1, after first course (10 mg three times a day)
  Ratio of secreted saliva to the value before the administration in the first course: 1.66
Saliva secretion [1]; subject 1, after first course (10 mg three times a day, 4 weeks), before 0.65 g
  Amount of secreted saliva: 1.08 g
Saliva secretion [1]; subject 1, after second course (20 mg three times a day)
  Ratio of secreted saliva to the value before the administration in the first course: 3.15
Saliva secretion [1]; subject 1, after second course (20 mg three times a day, 4 weeks), before 0.65 g
  Amount of secreted saliva: 2.05 g
Saliva secretion [1]; subject 1, after third course (30 mg three times a day)
  Ratio of secreted saliva to the value before the administration in the first course: 6.00
Saliva secretion [1]; subject 1, after third course (30 mg three times a day, 4 weeks), before 0.65 g
  Amount of secreted saliva: 3.90 g
Saliva secretion [1]; subject 2, after first course (10 mg three times a day)
  Ratio of secreted saliva to the value before the administration in the first course: 1.70
Saliva secretion [1]; subject 2, after first course (10 mg three times a day, 4 weeks), before 0.73 g
  Amount of secreted saliva: 1.24 g
Saliva secretion [1]; subject 2, after second course (20 mg three times a day)
  Ratio of secreted saliva to the value before the administration in the first course: 3.48
Saliva secretion [1]; subject 2, after second course (20 mg three times a day, 4 weeks), before 0.73 g
  Amount of secreted saliva: 2.54 g
Saliva secretion [1]; subject 2, after third course (30 mg three times a day)
  Ratio of secreted saliva to the value before the administration in the first course: 6.16
Saliva secretion [1]; subject 2, after third course (30 mg three times a day, 4 weeks), before 0.73 g
  Amount of secreted saliva: 4.50 g
Saliva secretion [1]; subject 3, after first course (10 mg three times a day)
  Ratio of secreted saliva to the value before the administration in the first course: 1.91
Saliva secretion [1]; subject 3, after first course (10 mg three times a day, 4 weeks), before 0.76 g
  Amount of secreted saliva: 1.45 g
Saliva secretion [1]; subject 3, after second course (20 mg three times a day)
  Ratio of secreted saliva to the value before the administration in the first course: 2.05
Saliva secretion [1]; subject 3, after second course (20 mg three times a day, 4 weeks), before 0.76 g
  Amount of secreted saliva: 1.56 g
Saliva secretion [1]; subject 3, after third course (30 mg three times a day)
  Ratio of secreted saliva to the value before the administration in the first course: 4.80
Saliva secretion [1]; subject 3, after third course (30 mg three times a day, 4 weeks), before 0.76 g
  Amount of secreted saliva: 3.65 g
Saliva secretion [1]; subject 4, after first course (10 mg three times a day)
  Ratio of secreted saliva to the value before the administration in the first course: 1.51
Saliva secretion [1]; subject 4, after first course (10 mg three times a day, 4 weeks), before 0.43 g
  Amount of secreted saliva: 0.65 g
Saliva secretion [1]; subject 4, after second course (20 mg three times a day)
  Ratio of secreted saliva to the value before the administration in the first course: 3.80
Saliva secretion [1]; subject 4, after second course (20 mg three times a day, 4 weeks), before 0.43 g
  Amount of secreted saliva: 1.63 g
Saliva secretion [1]; subject 4, after third course (30 mg three times a day)
  Ratio of secreted saliva to the value before the administration in the first course: 6.72
Saliva secretion [1]; subject 4, after third course (30 mg three times a day, 4 weeks), before 0.43 g
  Amount of secreted saliva: 2.89 g
Saliva secretion [1]; subject 5, after first course (10 mg three times a day)
  Ratio of secreted saliva to the value before the administration in the first course: 1.31
Saliva secretion [1]; subject 5, after first course (10 mg three times a day, 4 weeks), before 0.45 g
  Amount of secreted saliva: 0.59 g
Saliva secretion [1]; subject 5, after second course (20 mg three times a day)
  Ratio of secreted saliva to the value before the administration in the first course: 2.16
Saliva secretion [1]; subject 5, after second course (20 mg three times a day, 4 weeks), before 0.45 g
  Amount of secreted saliva: 0.97 g
Saliva secretion [1]; subject 5, after third course (30 mg three times a day)
  Ratio of secreted saliva to the value before the administration in the first course: 3.27
Saliva secretion [1]; subject 5, after third course (30 mg three times a day, 4 weeks), before 0.45 g
  Amount of secreted saliva: 1.47 g
Tear secretion; 0.5 mg/kg/day oral
  Number of animals secreted tear: 0 animals
  Number of animals secreted tear (%): 0%
Tear secretion; 3.0 mg/kg/day oral
  Number of animals secreted tear: 1 animals
  Number of animals secreted tear (%): 25%
Tear secretion; 18.0 mg/kg/day oral
  Number of animals secreted tear: 4 animals
  Number of animals secreted tear (%): 100%
Saliva secretion [2]; 0.5 mg/kg/day oral
  Number of animals secreted saliva: 0 animals
  Number of animals secreted saliva (%): 0%
Saliva secretion [2]; 3.0 mg/kg/day oral
  Number of animals secreted saliva: 3 animals
  Number of animals secreted saliva (%): 75%
Saliva secretion [2]; 18.0 mg/kg/day oral
  Number of animals secreted saliva: 4 animals
  Number of animals secreted saliva (%): 100%
[3]; iv, female mice
  LD50 at 336 h: 40.8 mg/kg
[3]; iv, male mice
  LD50 at 336 h: 45.2 mg/kg
[3]; po, female mice
  LD50 at 336 h: 167 mg/kg
[3]; po, male mice
  LD50 at 336 h: 139 mg/kg
[3]; sc, Subcutaneous, female mice
  LD50 at 336 h: 78.1 mg/kg
[3]; sc, Subcutaneous, male mice
  LD50 at 336 h: 65 mg/kg
Saliva secretion [4]; 5 mg oral
  Subjects showing promoted saliva secretion: 0 subjects
Saliva secretion [4]; 10 mg oral
  Subjects showing promoted saliva secretion: 0 subjects
Saliva secretion [4]; 20 mg oral
  Subjects showing promoted saliva secretion: 2 subjects
Saliva secretion [4]; 30 mg oral
  Subjects showing promoted saliva secretion: 8 subjects
Saliva secretion [4]; 40 mg oral
  Subjects showing promoted saliva secretion: 10 subjects
Saliva secretion [4]; 50 mg oral
  Subjects showing promoted saliva secretion: 10 subjects
Saliva secretion [4]; 60 mg oral
  Subjects showing promoted saliva secretion: 10 subjects
Saliva secretion [4]; 70 mg oral
  Subjects showing promoted saliva secretion: 10 subjects
[5]; subject 1
  Observation of the patient: Saliva secretion: increased
[5]; subject 2
  Observation of the patient: A dry feeling of oral cavity and irritation in the eyes: improved
[5]; subject 3
  Observation of the patient: The need for drinking water when taking food: eliminated
[5]; subject 4
  Observation of the patient: Incidence of being awaken due to dry mouth at midnight: improved

## CC(C[N+](C)(C)C)OC(N)=O (stereo not shown) [bethanechol]
[6]
  side effects: comprehensive side effects such as headache, hot flush, palpitation, intrathoracic agony, nausea, emesis, diarrhea, abdominal discomfort, pyrosis, stomach discomfort, diaphoresis, and the like
